Measurements taken from US9302999B2, “Substituted triazoles as herbicides” (E. I. DU PONT DE NEMOURS AND COMPANY, priority 2012, dated 2016).

Assays:
Format in all cases: in vivo
[1] = tested on: foxtail, giant (giant foxtail, Setaria faberii); test: Test A pre-/postemergence: foxtail, giant
Outline: (§1)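 Rating scale 0–100 (100 = complete control), visual, ~10 days after application in the greenhouse. Applications: preemergence directed soil spray; postemergence at 1–2 leaves.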

[2] = tested on: velvetleaf (Abutilon theophrasti); test: Test A pre-/postemergence: velvetleaf
Outline: as §1

[3] = tested on: wheat (Triticum aestivum); test: Test A pre-/postemergence: wheat
Outline: as §1

corn (Zea mays) = test: Test A pre-/postemergence: corn
Outline: as §1

[4] = tested on: sedge, umbrella (small-flower umbrella sedge Cyperus difformis); test: Test B flooded paddy: sedge, umbrella; details: Flood; 250 g ai/ha; applied to paddy water at 2-leaf stage; visually evaluated after 13 to 15 days
Outline: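 Plants were grown to the 2-leaf stage, then pots were flooded to 3 cm above the soil and compounds were applied directly into the paddy water. Water depth was held for the whole test; after 13 to 15 days in a greenhouse, injury was visually rated against untreated controls (0 = no effect, 100 = complete control).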

[5] = tested on: winter wheat (Triticum aestivum); test: Test C pre-/postemergence: winter wheat
Outline: (§2)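 Preemergence on seeds in loam/sand, postemergence on 2–18 cm (1–4-leaf) plants in peat-based medium; compounds in non-phytotoxic solvent with surfactant. After 13–15 days in greenhouse, visual rating versus controls, 0 (no effect) to 100 (complete control).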

[6] = tested on: nutsedge, yellow (yellow nutsedge, Cyperus esculentus); test: Test C pre-/postemergence: nutsedge, yellow
Outline: as §2

[7] = tested on: pigweed (Amaranthus retroflexus); test: Test C pre-/postemergence: pigweed
Outline: as §2

[8] = tested on: chickweed (common chickweed, Stellaria media); test: Test C postemergence: chickweed
Outline: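 Greenhouse pot test; foliar postemergence treatment at 1- to 4-leaf stage. Rated visually at 13 to 15 days on a 0–100 control scale relative to untreated plants.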

Oilseed Rape = test: Test C pre-/postemergence: oilseed rape
[9] = Postemergence, 125 g ai/ha, 0 to 100 scale, 0 is no effect, 100 is complete control
[10] = Postemergence, 500 g ai/ha, 0 to 100 scale, 0 is no effect, 100 is complete control
[11] = Preemergence, 125 g ai/ha, 0 to 100 scale where 0 is no effect and 100 is complete control
[12] = Preemergence, 500 g ai/ha, 0 to 100 scale (0 no effect, 100 complete control)
[13] = Postemergence, 31 g ai/ha, scale 0 to 100 (0 no effect, 100 complete control)
[14] = Postemergence, 62 g ai/ha, scale 0 to 100 (0 no effect, 100 complete control)
[15] = Postemergence, 125 g ai/ha, scale 0 to 100, 0 no effect, 100 complete control
[16] = Postemergence, 250 g ai/ha, scale 0 to 100 (0 no effect, 100 complete control)
[17] = Preemergence, 31 g ai/ha, scale 0 (no effect) to 100 (complete control)
[18] = Preemergence, 62 g ai/ha, scale of 0 to 100, 0 is no effect, 100 is complete control
[19] = Preemergence, 125 g ai/ha, scale 0 to 100, 0 no effect, 100 complete control
[20] = Preemergence, 250 g ai/ha, scale 0 to 100, 0 no effect, 100 complete control
[21] = 31 g ai/ha, scale 0 to 100 (0 no effect, 100 complete control)
[22] = 62 g ai/ha, scale 0 to 100 (0 no effect, 100 complete control)
[23] = 125 g ai/ha, scale 0 to 100, 0 no effect, 100 complete control

CCCc1nn(-c2ccc(F)cc2)nc1Oc1ccnc(C(F)(F)F)c1 [Compound 168]
Plant response rating, Foxtail, Giant [1, 9]: 90 | Foxtail, Giant plant response rating [1, 10]: 90 | Plant response rating, Foxtail, Giant [1, 11]: 100 | Plant response rating, Foxtail, Giant [1, 12]: 100 | Plant response rating, Velvetleaf [2, 9]: 100 | Velvetleaf plant response rating [2, 10]: 100 | Plant response rating, Velvetleaf [2, 11]: 30 | Plant response rating, Velvetleaf [2, 12]: 90 | Plant response rating, Wheat [3, 9]: 40 | Wheat plant response rating [3, 10]: 50 | Plant response rating, Wheat [3, 11]: 40 | Plant response rating, Wheat [3, 12]: 60 | Plant response rating, Corn (corn (Zea mays); [9]): 20 | Corn plant response rating (corn (Zea mays); [10]): 50 | Plant response rating, Corn (corn (Zea mays); [11]): 20 | Plant response rating, Corn (corn (Zea mays); [12]): 40 | Plant response rating, Sedge, Umbrella (0 to 100 scale, 0 is no effect, 100 is complete control) [4]: 85 | Plant response rating, Wheat [5, 13]: 20 | Plant response rating, Wheat [5, 14]: 20 | Plant response rating, Wheat [5, 15]: 35 | Plant response rating, Wheat [5, 16]: 45 | Plant response rating, Wheat [5, 17]: 5 | Plant response rating, Wheat [5, 18]: 40 | Plant response rating, Wheat [5, 19]: 40 | Plant response rating, Wheat [5, 20]: 60 | Plant response rating, Nutsedge, Yellow [6, 13]: 10 | Plant response rating, Nutsedge, Yellow [6, 14]: 10 | Plant response rating, Nutsedge, Yellow [6, 15]: 15 | Plant response rating, Nutsedge, Yellow [6, 16]: 20 | Plant response rating, Nutsedge, Yellow [6, 17]: 0 | Plant response rating, Nutsedge, Yellow [6, 18]: 0 | Plant response rating, Nutsedge, Yellow [6, 19]: 5 | Plant response rating, Nutsedge, Yellow [6, 20]: 5 | Plant response rating, Pigweed [7, 13]: 80 | Plant response rating, Pigweed [7, 14]: 98 | Plant response rating, Pigweed [7, 15]: 98 | Plant response rating, Pigweed [7, 16]: 98 | Plant response rating, Pigweed [7, 17]: 100 | Plant response rating, Pigweed [7, 18]: 100 | Plant response rating, Pigweed [7, 19]: 100 | Plant response rating, Pigweed [7, 20]: 100 | Plant response rating, Chickweed [8, 21]: 80 | Plant response rating, Chickweed [8, 22]: 80 | Plant response rating, Chickweed [8, 23]: 90 | Plant response rating, Chickweed ([8]; 250 g ai/ha, scale 0 to 100): 100 | Plant response rating, Oilseed Rape (Oilseed Rape; [13]): 40 | Plant response rating, Oilseed Rape (Oilseed Rape; [20]): 100

CCc1nn(-c2ccc(C(F)(F)F)cc2)nc1Oc1ccnc(C(F)(F)F)c1 [Compound 169]
Plant response rating, Foxtail, Giant [1, 9]: 80 | Foxtail, Giant plant response rating [1, 10]: 90 | Plant response rating, Foxtail, Giant [1, 11]: 100 | Plant response rating, Foxtail, Giant [1, 12]: 100 | Plant response rating, Velvetleaf [2, 9]: 100 | Velvetleaf plant response rating [2, 10]: 100 | Plant response rating, Velvetleaf [2, 11]: 50 | Plant response rating, Velvetleaf [2, 12]: 90 | Plant response rating, Wheat [3, 9]: 30 | Wheat plant response rating [3, 10]: 40 | Plant response rating, Wheat [3, 11]: 20 | Plant response rating, Wheat [3, 12]: 50 | Plant response rating, Corn (corn (Zea mays); [9]): 10 | Corn plant response rating (corn (Zea mays); [10]): 50 | Plant response rating, Corn (corn (Zea mays); [11]): 20 | Plant response rating, Corn (corn (Zea mays); [12]): 20 | Plant response rating, Sedge, Umbrella (0 to 100 scale, 0 is no effect, 100 is complete control) [4]: 85 | Plant response rating, Wheat [5, 13]: 10 | Plant response rating, Wheat [5, 14]: 10 | Plant response rating, Wheat [5, 15]: 30 | Plant response rating, Wheat [5, 16]: 30 | Plant response rating, Wheat [5, 17]: 5 | Plant response rating, Wheat [5, 18]: 15 | Plant response rating, Wheat [5, 19]: 20 | Plant response rating, Wheat [5, 20]: 50 | Plant response rating, Nutsedge, Yellow [6, 13]: 5 | Plant response rating, Nutsedge, Yellow [6, 14]: 5 | Plant response rating, Nutsedge, Yellow [6, 15]: 10 | Plant response rating, Nutsedge, Yellow [6, 16]: 10 | Plant response rating, Nutsedge, Yellow [6, 17]: 0 | Plant response rating, Nutsedge, Yellow [6, 18]: 5 | Plant response rating, Nutsedge, Yellow [6, 19]: 5 | Plant response rating, Nutsedge, Yellow [6, 20]: 5 | Plant response rating, Pigweed [7, 13]: 95 | Plant response rating, Pigweed [7, 14]: 95 | Plant response rating, Pigweed [7, 15]: 100 | Plant response rating, Pigweed [7, 16]: 100 | Plant response rating, Pigweed [7, 17]: 100 | Plant response rating, Pigweed [7, 18]: 100 | Plant response rating, Pigweed [7, 19]: 100 | Plant response rating, Pigweed [7, 20]: 100 | Plant response rating, Chickweed [8, 21]: 60 | Plant response rating, Chickweed [8, 22]: 60 | Plant response rating, Chickweed [8, 23]: 95 | Plant response rating, Chickweed ([8]; 250 g ai/ha, scale 0 to 100): 100 | Plant response rating, Oilseed Rape (Oilseed Rape; [13]): 30 | Plant response rating, Oilseed Rape (Oilseed Rape; [20]): 100
